Results taken from patent publication US11673866B2, “Estrogen receptor beta ligands for the prevention and treatment of multiple sclerosis (MS) and other demyelinating, inflammatory and neurodegenerative diseases” (The Board of Trustees of the University of Illinois, priority 2018, dated 2023).
Entries after “also recorded” stand apart in the source; their conditions may differ.

Columns and labels:
[1] = tested on: MOG35-55-stimulated splenocytes; test: Cytokine and chemokine production by splenocytes from EAE mice (Luminex); type: in vivo, mouse; parameters: key to Peripheral Inflammatory Cytokines: IFNγ / Peripheral Inflammatory Cytokines: IL-lβ / Peripheral Inflammatory Cytokines: IL-2 / Peripheral Inflammatory Cytokines: IL-6 / Peripheral Inflammatory Cytokines: IL-17 / Peripheral Inflammatory Cytokines: TNFα / Peripheral Th2 & Anti-inflammatory Cytokines: IL-4 / Peripheral Th2 & Anti-inflammatory Cytokines: IL-5 / Peripheral Th2 & Anti-inflammatory Cytokines: IL-10 / Peripheral Th2 & Anti-inflammatory Cytokines: IL-13 / Peripheral Chemokines: CXCL1 / Peripheral Chemokines: CXCL10: ‘+’ indicate marker was significantly (p ≤ 0.05) increased in treatment group relative to vehicle; ‘−’ indicates marker was significantly (p ≤ 0.05) decreased in treatment group relative to vehicle; ○: ‘o’ indicate marker did not change relative to vehicle; settings: for Peripheral Chemokines: CXCL1 / Peripheral Chemokines: CXCL10 / Peripheral Inflammatory Cytokines: IFNγ / Peripheral Inflammatory Cytokines: IL-2 / Peripheral Inflammatory Cytokines: IL-6 / Peripheral Inflammatory Cytokines: IL-17 / Peripheral Inflammatory Cytokines: IL-lβ / Peripheral Inflammatory Cytokines: TNFα / Peripheral Th2 & Anti-inflammatory Cytokines: IL-4 / Peripheral Th2 & Anti-inflammatory Cytokines: IL-5 / Peripheral Th2 & Anti-inflammatory Cytokines: IL-10 / Peripheral Th2 & Anti-inflammatory Cytokines: IL-13: vs vehicle
Method: Splenocyte Isolation & Cytokine Analysis: On day 20-21 after induction of EAE, spleens were harvested prior to transcardial perfusion. Spleens were dissected from anesthetized mice and mechanically dissociated into a single cell suspension in cold RPMI 1640 supplemented with pyruvate, L-glutamine, and 10% fetal bovine serum (henceforth referred to as RPMI). Red blood cells were lysed by incubation with ACK buffer (VWR), washed, counted, and resuspended in RPMI for cytokine analysis. Splenocytes were then stimulated with 25 μg/ml MOG35-55 and supernatants were collected 48 hours later (Khalaj et al., 2013; Moore et al., 2013). Levels of the anti-inflammatory cytokines: IL-10, IL-13, IL-4 and IL-5; pro-inflammatory cytokines IFNγ, IL-17, IL-1β TNFα, IL-6 and IL-2; and chemokines: CXCL1, CXCL10 were determined by Cytokine Mouse Magnetic Panel for Luminex (Thermo Fisher Scientific; Waltham, Mass.) and run on the xMAP MAGPIX 100™ instrument (Luminex Corporation, Austin, Tx) according to manufacturer's instructions.
During MS and EAE, peripherally activated leukocytes secrete inflammatory cytokines and chemokines as they migrate into the CNS, where they contribute to demyelination and axon damage (Fletcher et al., 2010). To characterize the effects of IndCl analogues on the peripheral immune response, splenocytes were isolated from mice 21 days post-immunization and stimulated ex vivo with MOG35-55 peptide for cytokine and chemokine analysis using a magnetic bead-based 20-plex cytokine/chemokine detection assay. Cytokines related to inflammation, CD4+ T cell polarization, immune regulation, and chemokines associated with OL apoptosis and myelination that were measured in collected supernatants are presented below.

[2] = tested on: myelin basic protein (MBP) in thoracic spinal cord ventral column; test: MBP immunoreactivity in thoracic ventral column white matter of EAE mice; type: in vivo, mouse; settings: therapeutic treatment (postEAE), vs vehicle
Method: Histological Preparation of Tissues: Mice were deeply anesthetized by isoflurane (Piramal Healthcare) inhalation and perfused transcardially with phosphate buffered saline (PBS), followed by 10% formalin (Thermo Fisher Scientific) to fix tissues. Brains and spinal cords were dissected and post-fixed in 10% formalin (Thermo Fisher Scientific) for 24 hours, then cryoprotected in 30% sucrose (EMD Millipore, Darmstadt, Germany) for 48 hours and embedded in gelatin for sectioning. Embedded brains and spinal cords were then cut into 40-μm coronal sections using an HM525 NX cryostat (Thermo Fisher Scientific). Sections were collected serially and stored in PBS with 1% sodium azide at 4° C. until staining by immunohistochemistry, following a previously described protocol (Crawford et al., 2010; Moore et al., 2014).
Immunohistochemistry: Before histological staining, 40-μm free floating sections were thoroughly washed with PBS to remove residual sodium azide (Crawford et al., 2010). Sections were permeabilized with 0.3% Triton X-100 in ix PBS and 15% normal goat serum (NGS). […]
Confocal Microscopy: Thoracic spinal cord dorsal and ventral column sections, as well as CC were imaged using an Olympus BX61 confocal microscope (Olympus America Inc., Center Valley, Pa.) using a 10× and 40× objective. […] Immunostaining was quantified using unbiased stereology (Crawford et al., 2010). […] MBP^+, GFAP^+, CD45^+, Iba1^+, CC1^+, and CXCL1^+, staining intensity was measured as percent area of positive immunoreactivity within the region of interest and intensity of signal determined by ImageJ.
Treatment with IndCl or other ERβ ligands improves myelination within CNS white tracts of mice with EAE (Khalaj et al., 2013; Kumar et al., 2013; Moore et al., 2014). To establish the pro-myelinating effects of the IndCl analogues tested, thoracic ventral column white matter was assessed for myelin basic protein (MBP) immunoreactivity.

[3] = Post (therapeutic, postEAE) treatment of EAE mice
[4] = Pre (prophylactic, preEAE) E2 treatment of EAE mice
[5] = prophylactic E2 (preEAE), day 21, vs vehicle
[6] = therapeutic treatment (postEAE), day 21, vs vehicle

Structure (SMILES)	Peripheral Chemokines: CXCL1 [1, 3]	Peripheral Chemokines: CXCL10 [1, 3]	Peripheral Inflammatory Cytokines: IFNγ [1, 3]	Peripheral Inflammatory Cytokines: IL-2 [1, 3]	Peripheral Inflammatory Cytokines: IL-6 [1, 3]	Peripheral Inflammatory Cytokines: IL-17 [1, 3]	Peripheral Inflammatory Cytokines: IL-lβ [1, 3]	Peripheral Inflammatory Cytokines: TNFα [1, 3]	Peripheral Th2 & Anti-inflammatory Cytokines: IL-4 [1, 3]	Peripheral Th2 & Anti-inflammatory Cytokines: IL-5 [1, 3]	Peripheral Th2 & Anti-inflammatory Cytokines: IL-10 [1, 3]	Peripheral Th2 & Anti-inflammatory Cytokines: IL-13 [1, 3]	MBP staining intensity, thoracic spinal cord ventral column [2]	IFNγ production by splenocytes [1, 6]	IL-6 production by splenocytes [1, 6]	IL-13 production by splenocytes [1, 6]	further results
C[C@]12CC[C@@H]3c4ccc(O)cc4CC[C@H]3[C@@H]1CC[C@@H]2O [E2, 170 estradiol]	+	−	−	○	−	−	○	○	○	○	○	○					Peripheral Chemokines: CXCL1 [1, 4]: +; Peripheral Chemokines: CXCL10 [1, 4]: −; Peripheral Inflammatory Cytokines: IFNγ [1, 4]: −; Peripheral Inflammatory Cytokines: IL-2 [1, 4]: −; Peripheral Inflammatory Cytokines: IL-6 [1, 4]: −; Peripheral Inflammatory Cytokines: IL-17 [1, 4]: −; Peripheral Inflammatory Cytokines: IL-lβ [1, 4]: ○; Peripheral Inflammatory Cytokines: TNFα [1, 4]: ○; Peripheral Th2 & Anti-inflammatory Cytokines: IL-4 [1, 4]: ○; Peripheral Th2 & Anti-inflammatory Cytokines: IL-5 [1, 4]: ○; Peripheral Th2 & Anti-inflammatory Cytokines: IL-10 [1, 4]: ○; Peripheral Th2 & Anti-inflammatory Cytokines: IL-13 [1, 4]: ○; IL-1β production by splenocytes [1, 5]: no effect; TNFα production by splenocytes [1, 5]: no effect
Oc1ccc(-n2nc3ccc(O)cc3c2Cl)cc1 [IndCl, chloroindazole]	+	−	−	○	○	○	+	○	○	○	○	○	maintained at near normal levels; also recorded: increased	significantly decreased			CXCL1 production by splenocytes [1, 6]: increased; CXCL10 production by splenocytes [1, 6]: decreased; IL-1β production by splenocytes [1, 6]: increased; Th2 (IL-4, IL-5, IL-13) and IL-10 cytokine production by splenocytes [1, 6]: no effect
Cc1cc(O)ccc1-n1nc2ccc(O)cc2c1Cl [IndCl-o-Me, 3-chloro-2-(4-hydroxy-2-methylphenyl)-2H-indazol-5-ol]	+	−	−	○	−	−	○	○	○	○	○	−	maintained at near normal levels; also recorded: increased	significantly decreasing	significantly decreasing	attenuated	IL-17 production by splenocytes [1, 6]: significantly decreasing; also recorded: reducing; IFNγ production by splenocytes ([1]; therapeutic treatment (postEAE), day 21, vs vehicle, listed as o-Me): decreased
Oc1ccc(-n2nc3ccc(O)cc3c2Cl)c(Cl)c1 [IndCl-o-Cl, 3-chloro-2-(2-chloro-4-hydroxyphenyl)-2H-indazol-5-ol]	+	−	−	○	−	−	○	○	○	○	○	−	maintained at near normal levels; also recorded: increased	significantly decreased	significantly decreased	attenuated	IFNγ production by splenocytes ([1]; therapeutic treatment (postEAE), day 21, vs vehicle, listed as o-Cl): decreased
